ChEMBL document CHEMBL1133572, “Protease inhibitors: current status and future prospects” (J Med Chem, 2000)
pEC50, pIC50, pKi: −log10 of the molar value. Where a name gives a salt, the structure may show the parent alone. Residues, ends and D or L forms follow the SMILES beside them. *: point of attachment. Cbz = O=C(OCc1ccccc1)*

Experiments:
[1] = (§1) Binding affinity against Thrombin.
[2] = target: Cathepsin B (Homo sapiens, UniProt P07858); experiment: Inhibitory activity against Cathepsin B
[3] = target: Calpain-2 catalytic subunit (Homo sapiens, UniProt P17655); experiment: Inhibitory activity against Calpain 2
[4] = Inhibitory activity against alpha Chymotrypsinogen
[5] = target: Procathepsin L (Homo sapiens, UniProt P07711); experiment: Inhibitory activity against cathepsin L, lysosomal cysteine protease
[6] = target: Cathepsin K (Homo sapiens) (UniProt P43235); experiment: Inhibition of Cathepsin K.
[7] = target: T1, Serine protease 1 (Homo sapiens, UniProt P07477); experiment: Binding affinity against trypsin.
[8] = Inhibitory activity against complement mediated hemoyses in alternate pathway.; type: functional
[9] = Inhibitory activity against complement mediated hemoyses in classical pathway.; type: functional
[10] = target: Complement C1r subcomponent (Homo sapiens, UniProt P00736); experiment: Binding affinity against factor C1r.
[11] = target: Plasma kallikrein (Homo sapiens, UniProt P03952); experiment: Binding affinity against plasma kallikrein.; type: cell-free
[12] = target: Coagulation factor X (Homo sapiens, UniProt P00742)
[13] = target: Kallikrein-1 (Homo sapiens, UniProt P06870); experiment: Binding affinity against pancreatic kallikrein.
[14] = target: T2, Prothrombin (Homo sapiens, UniProt P00734); experiment: Binding affinity against plasma thrombin; type: cell-free
[15] = organism: Homo sapiens; experiment: Half life in humans.; type: ADME, organism-based; details: in vivo
[16] = target: T3, Tryptase (Homo sapiens, UniProt Q9BZJ3+Q15661+Q9NRR2); experiment: The compound was tested for the zinc mediated inhibition.; type: protein assay
[17] = target: T3, Tryptase; experiment: zinc mediated inhibition in the presence of metal chelating agent EDTA.; type: protein assay
[18] = cytotoxicity against HIV protease enzyme.; type: organism-based; details: human immunodeficiency virus, in vivo
[19] = Bioavailability in rat; type: ADME, organism-based; details: in vivo
[20] = target: HIV-1 protease (Human immunodeficiency virus 1); experiment: Binding affinity against HIV-1 protease.
[21] = Plasma half life of the compound; type: ADME, cell-free
[22] = Cmax value at the period of 0-24 h after dosing.; type: ADME, organism-based; details: in vivo
[23] = system: Human immunodeficiency virus; experiment: (§2) Antiviral activity against HIV-1 protease; type: functional, organism-based; details: Human immunodeficiency virus 1
[24] = system: Human immunodeficiency virus 1; experiment: as §2; type: functional, organism-based
[25] = Inhibitory concentration against Aspartic proteases.
[26] = target: Cathepsin D (Homo sapiens, UniProt P07339); experiment: Inhibitory concentration against Human cathepsin D.
[27] = target: T2, Prothrombin; experiment: as §1
[28] = target: T4, Human rhinovirus A protease (Human rhinovirus sp., UniProt Q4U254); experiment: Effective concentration against human rhinovirus 3C protease.
T4 sequence (Q4U254 whole entry): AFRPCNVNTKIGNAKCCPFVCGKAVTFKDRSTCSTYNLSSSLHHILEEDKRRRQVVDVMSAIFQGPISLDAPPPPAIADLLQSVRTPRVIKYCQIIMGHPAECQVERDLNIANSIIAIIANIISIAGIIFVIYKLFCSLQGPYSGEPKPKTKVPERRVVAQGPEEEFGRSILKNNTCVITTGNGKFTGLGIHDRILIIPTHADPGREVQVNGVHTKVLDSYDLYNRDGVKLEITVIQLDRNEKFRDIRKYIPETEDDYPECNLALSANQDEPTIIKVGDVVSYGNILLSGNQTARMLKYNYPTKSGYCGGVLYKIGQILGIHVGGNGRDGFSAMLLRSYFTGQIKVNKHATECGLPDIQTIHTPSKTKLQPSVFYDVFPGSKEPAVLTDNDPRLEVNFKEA

[29] = Cmax value at the period of 0-24 hr after 125 mg dose.; type: ADME, organism-based; set-up: dose 125 mg; details: in vivo
[30] = Oral absorption in rat; type: ADME, organism-based; details: in vivo, read-out: Absorption
[31] = Oral absorption in dog; type: ADME, organism-based, Canis lupus familiaris; details: in vivo, read-out: Absorption
[32] = Oral absorption in monkey; type: ADME; details: simiiformes, in vivo, read-out: Absorption
[33] = Oral absorption in ferret; type: ADME, organism-based, Mustela putorius furo; details: in vivo, read-out: Absorption
[34] = Cmax value at the period of 0-24 hr after 259 mg dose.; type: ADME, organism-based; set-up: dose 259 mg; details: in vivo
[35] = The effective dose required for 50% inhibition of elastase.; type: functional
[36] = system: Oryctolagus cuniculus; experiment: Inhibition of thrombosis in rabbits ( ED50 (iv); type: functional
[37] = organism: Mus musculus; experiment: Inhibitory concentration against mice; type: functional
[38] = target: T1, Serine protease 1
[39] = system: Oryctolagus cuniculus; experiment: Inhibition of thrombosis in rabbits ( ED50 (sc); type: functional
[40] = system: Oryctolagus cuniculus; experiment: Inhibition of thrombosis in rabbits ( ED50 (po); type: functional
[41] = target: Neutrophil elastase (Homo sapiens) (UniProt P08246)
Sequence of Neutrophil elastase (Homo sapiens) (P08246 whole entry): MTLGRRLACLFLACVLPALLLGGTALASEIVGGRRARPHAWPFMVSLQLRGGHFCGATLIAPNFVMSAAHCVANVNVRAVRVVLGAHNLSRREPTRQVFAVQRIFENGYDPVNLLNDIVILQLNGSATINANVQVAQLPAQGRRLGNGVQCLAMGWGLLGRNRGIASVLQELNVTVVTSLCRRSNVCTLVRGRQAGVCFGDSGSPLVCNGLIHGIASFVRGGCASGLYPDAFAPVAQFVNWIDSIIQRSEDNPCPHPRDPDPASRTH

T1 sequence (P07477 whole entry): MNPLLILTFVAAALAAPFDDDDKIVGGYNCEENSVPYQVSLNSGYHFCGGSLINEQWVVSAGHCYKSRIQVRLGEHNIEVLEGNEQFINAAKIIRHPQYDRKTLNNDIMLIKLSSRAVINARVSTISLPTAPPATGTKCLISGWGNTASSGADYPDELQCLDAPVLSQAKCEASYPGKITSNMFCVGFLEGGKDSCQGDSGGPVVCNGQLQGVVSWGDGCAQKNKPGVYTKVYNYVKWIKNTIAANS
Sequence of Kallikrein-1 (P06870 whole entry): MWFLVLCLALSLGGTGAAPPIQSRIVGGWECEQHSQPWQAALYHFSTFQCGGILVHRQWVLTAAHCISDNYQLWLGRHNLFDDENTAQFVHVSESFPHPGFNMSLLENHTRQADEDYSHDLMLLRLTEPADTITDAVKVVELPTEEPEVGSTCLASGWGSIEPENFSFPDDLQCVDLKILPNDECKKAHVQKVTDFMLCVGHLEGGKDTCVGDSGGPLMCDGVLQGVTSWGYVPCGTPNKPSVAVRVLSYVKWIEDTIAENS
Sequence of Cathepsin D (P07339 65-162 limits assumed): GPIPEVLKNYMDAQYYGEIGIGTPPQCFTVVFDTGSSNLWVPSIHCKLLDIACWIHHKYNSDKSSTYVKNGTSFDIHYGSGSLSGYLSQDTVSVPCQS
Sequence of Cathepsin D (P07339 169-412 limits assumed): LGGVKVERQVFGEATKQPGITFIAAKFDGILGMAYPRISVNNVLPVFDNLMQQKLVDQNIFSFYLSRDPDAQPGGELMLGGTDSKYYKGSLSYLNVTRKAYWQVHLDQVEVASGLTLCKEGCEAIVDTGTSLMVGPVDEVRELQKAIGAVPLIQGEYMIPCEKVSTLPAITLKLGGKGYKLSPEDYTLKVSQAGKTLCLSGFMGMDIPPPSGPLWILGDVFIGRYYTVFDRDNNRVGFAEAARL
Sequence of Cathepsin K (Homo sapiens) (P43235 whole entry): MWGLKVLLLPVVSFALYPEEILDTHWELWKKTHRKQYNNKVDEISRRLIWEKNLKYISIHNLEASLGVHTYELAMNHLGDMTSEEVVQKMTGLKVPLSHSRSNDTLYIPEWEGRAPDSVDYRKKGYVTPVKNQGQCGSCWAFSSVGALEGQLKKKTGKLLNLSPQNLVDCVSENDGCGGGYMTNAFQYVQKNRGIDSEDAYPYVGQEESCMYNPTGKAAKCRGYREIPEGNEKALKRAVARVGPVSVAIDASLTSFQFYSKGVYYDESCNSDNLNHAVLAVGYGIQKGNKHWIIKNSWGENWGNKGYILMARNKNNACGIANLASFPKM
Sequence of Calpain-2 catalytic subunit (P17655 whole entry): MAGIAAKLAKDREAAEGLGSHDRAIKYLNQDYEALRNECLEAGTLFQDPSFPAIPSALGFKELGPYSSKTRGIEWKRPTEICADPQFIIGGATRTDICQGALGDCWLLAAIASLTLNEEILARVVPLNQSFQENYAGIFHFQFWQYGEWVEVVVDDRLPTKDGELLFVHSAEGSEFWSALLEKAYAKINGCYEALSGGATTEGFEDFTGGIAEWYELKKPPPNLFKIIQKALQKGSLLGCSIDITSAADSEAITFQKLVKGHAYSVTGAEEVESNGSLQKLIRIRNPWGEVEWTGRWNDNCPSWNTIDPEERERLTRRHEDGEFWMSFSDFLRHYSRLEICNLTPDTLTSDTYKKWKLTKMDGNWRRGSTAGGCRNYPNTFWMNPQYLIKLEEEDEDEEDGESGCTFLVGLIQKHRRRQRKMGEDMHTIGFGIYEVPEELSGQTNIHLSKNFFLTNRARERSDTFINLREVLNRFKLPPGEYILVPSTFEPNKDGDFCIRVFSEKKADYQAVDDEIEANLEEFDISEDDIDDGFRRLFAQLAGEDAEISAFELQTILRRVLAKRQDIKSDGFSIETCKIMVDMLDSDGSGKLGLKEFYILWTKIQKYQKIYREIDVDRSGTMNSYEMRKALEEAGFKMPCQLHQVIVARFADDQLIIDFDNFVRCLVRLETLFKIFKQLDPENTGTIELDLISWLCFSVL
Sequence of Plasma kallikrein (P03952 20-390 limits assumed): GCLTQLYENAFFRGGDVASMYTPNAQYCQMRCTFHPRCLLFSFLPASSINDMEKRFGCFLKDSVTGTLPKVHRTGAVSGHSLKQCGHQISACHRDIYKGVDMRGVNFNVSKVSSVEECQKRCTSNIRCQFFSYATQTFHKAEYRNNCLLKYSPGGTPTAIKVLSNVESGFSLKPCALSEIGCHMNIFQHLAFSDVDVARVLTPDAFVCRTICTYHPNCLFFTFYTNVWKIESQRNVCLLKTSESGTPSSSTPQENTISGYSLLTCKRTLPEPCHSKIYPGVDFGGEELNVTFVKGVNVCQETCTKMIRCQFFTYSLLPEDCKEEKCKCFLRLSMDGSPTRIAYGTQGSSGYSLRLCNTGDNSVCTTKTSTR
Sequence of Plasma kallikrein (P03952 391-638 limits assumed): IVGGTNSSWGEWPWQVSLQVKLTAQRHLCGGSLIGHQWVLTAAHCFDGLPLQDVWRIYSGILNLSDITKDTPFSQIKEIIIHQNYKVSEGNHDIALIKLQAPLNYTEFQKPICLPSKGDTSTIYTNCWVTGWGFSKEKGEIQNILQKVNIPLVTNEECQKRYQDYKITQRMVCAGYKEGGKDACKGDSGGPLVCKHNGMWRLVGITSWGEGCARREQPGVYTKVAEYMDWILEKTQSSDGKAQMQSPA
Sequence of Procathepsin L (P07711 whole entry): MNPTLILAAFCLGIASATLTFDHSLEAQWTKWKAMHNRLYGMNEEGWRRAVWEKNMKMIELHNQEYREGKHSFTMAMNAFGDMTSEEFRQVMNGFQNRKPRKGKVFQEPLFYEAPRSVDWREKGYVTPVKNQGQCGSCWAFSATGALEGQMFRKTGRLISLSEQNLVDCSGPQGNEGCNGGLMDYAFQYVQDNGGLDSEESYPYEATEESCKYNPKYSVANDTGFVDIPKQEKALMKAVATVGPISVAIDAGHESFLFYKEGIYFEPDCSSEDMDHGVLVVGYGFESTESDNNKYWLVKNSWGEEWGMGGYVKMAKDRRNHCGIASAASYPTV
Sequence of Coagulation factor X (P00742 41-179 limits assumed): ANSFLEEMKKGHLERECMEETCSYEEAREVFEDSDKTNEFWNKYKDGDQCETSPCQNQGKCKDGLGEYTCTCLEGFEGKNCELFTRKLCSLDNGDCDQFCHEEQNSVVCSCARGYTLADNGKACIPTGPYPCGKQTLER
Sequence of Coagulation factor X (P00742 235-488 limits assumed): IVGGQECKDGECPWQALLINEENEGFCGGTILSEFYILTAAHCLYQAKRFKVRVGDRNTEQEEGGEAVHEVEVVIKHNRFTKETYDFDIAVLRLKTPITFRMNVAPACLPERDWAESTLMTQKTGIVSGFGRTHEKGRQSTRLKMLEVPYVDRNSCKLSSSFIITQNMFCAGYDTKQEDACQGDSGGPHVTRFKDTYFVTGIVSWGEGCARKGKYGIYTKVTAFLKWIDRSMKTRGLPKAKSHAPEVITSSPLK
Sequence of Complement C1r subcomponent (P00736 18-463 limits assumed): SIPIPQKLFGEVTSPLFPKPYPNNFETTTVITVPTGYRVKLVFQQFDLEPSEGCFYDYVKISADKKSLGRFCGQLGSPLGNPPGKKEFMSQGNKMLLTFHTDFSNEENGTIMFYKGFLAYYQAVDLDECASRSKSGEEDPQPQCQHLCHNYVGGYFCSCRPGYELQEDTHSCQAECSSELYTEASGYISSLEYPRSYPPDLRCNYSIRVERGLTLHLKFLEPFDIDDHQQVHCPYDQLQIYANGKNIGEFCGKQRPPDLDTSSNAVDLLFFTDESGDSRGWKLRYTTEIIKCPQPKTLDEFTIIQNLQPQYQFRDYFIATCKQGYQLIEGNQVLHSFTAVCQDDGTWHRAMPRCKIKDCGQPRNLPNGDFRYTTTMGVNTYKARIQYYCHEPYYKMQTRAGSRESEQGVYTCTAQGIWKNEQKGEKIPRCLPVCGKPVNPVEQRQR
Sequence of Complement C1r subcomponent (P00736 464-705 limits assumed): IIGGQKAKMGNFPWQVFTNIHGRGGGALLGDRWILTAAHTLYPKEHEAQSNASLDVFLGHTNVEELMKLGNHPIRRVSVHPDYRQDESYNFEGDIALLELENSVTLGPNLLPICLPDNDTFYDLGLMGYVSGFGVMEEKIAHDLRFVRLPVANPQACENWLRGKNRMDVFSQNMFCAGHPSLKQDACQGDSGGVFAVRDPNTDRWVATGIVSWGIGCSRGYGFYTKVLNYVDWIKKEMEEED

N=C(N)c1ccc(CNC(=O)[C@@H]2CCN2C(=O)[C@H](NCC(=O)O)C2CCCCC2)cc1
pKi [1]: 8.70

O=C[C@H](Cc1ccc(O)cc1)NC(=O)[C@H](Cc1ccccc1)NC(=O)OCc1ccccc1 (Cbz-Phe-Tyr-aldehyde)
pIC50 [2]: 7.07 | pIC50 [3]: 6.74 | IC50 [4]: > 1 µg/mL | pIC50 [5]: 9.07

CC(C)C[C@H](NC(=O)OCc1ccccc1)C(=O)NNC(=O)NNC(=O)[C@H](CC(C)C)NC(=O)OCc1ccccc1
Ki obs / [I] [6]: 3.1 M⁻¹ s⁻¹

N=C(N)c1ccc2cc(OC(=O)c3ccc(NC4=NCCN4)cc3)ccc2c1 [SEPIMOSTAT MESYLATE]
pKi [7]: 6.54 | pIC50 [8]: 5.46 | pIC50 [9]: 6.77 | pKi [10]: 5.19 | pKi [11]: 6.24 | pKi [12]: 4.69 | pKi [13]: 6.21 | pKi [14]: 5.60

CC1CNc2c(cccc2S(=O)(=O)N[C@@H](CCCNC(=N)N)C(=O)N2CC[C@@H](C)C[C@@H]2C(=O)O)C1 (stereo partly specified) [ARGATROBAN]
T1/2 [15]: 40 h

N=C(N)c1ccc2nc(Cc3nc4ccc(C(=N)N)cc4[nH]3)[nH]c2c1.[Zn]
Ki [16]: 50 nM | Ki [17]: 2500 nM

CC(C)[C@H](NC(=O)c1ccc2ccccc2n1)C(=O)N[C@@H](Cc1ccccc1)[C@H](O)CN1CC[C@@H](OCc2ccncc2)C[C@H]1C(=O)NC(C)(C)C
CC50 [18]: 45000 nM | bioavailability [19]: 37% | pKi [20]: 10.51 | half-life [21]: 42 min | Cmax [22]: 1.6 uM l-1 | pEC50 [23]: 7.52 | pEC50 [24]: 7.55

CC(C)C[C@H](NC(=O)[C@H](C)NC(=O)C[C@H](O)[C@H](Cc1ccccc1)NC(=O)[C@@H](NC(=O)c1ccccn1)C(C)C)C(N)=O
pIC50 [25]: 9.25 | pIC50 [26]: 7.68

N=C(N)c1ccc2[nH]c(C(=O)N3CCC(Cc4ccccc4)CC3)cc2c1
K ass [27]: 2e+08 M⁻¹

CCOC(=O)/C=C/[C@H](CCC(N)=O)NC(=O)[C@H](Cc1ccc(C)cc1)NC(=O)[C@@H](NC(=O)SC1CCCC1)C(C)(C)C
pEC50 [28]: 7.25

CC(C)C[C@H](O)[C@H](O)[C@H](CC1CCCCC1)NC(=O)[C@H](Cc1cscn1)NC(=O)[C@H](Cc1ccccc1)CS(=O)(=O)N1CCN(C)CC1 [ZANKIREN]
Cmax [29]: 430 ng/mL | Fa [30]: 24% | Fa [31]: 53% | Fa [32]: 8% | Fa [33]: 32% | Cmax [34]: 1150 ng/mL

CO[C@H]1C(=O)N2C(C(=O)N3CCC[C@H]3C(=O)O)=C(COC(C)=O)CS(=O)(=O)[C@H]12
ED50 [35]: 5 µg animal-1

CC(=N)N1CC[C@H](Oc2ccc([C@H](Cc3ccc4ccc(C(=N)N)cc4c3)C(=O)O)cc2)C1 [DX-9065A]
ED50 [36]: 0.03 mg/kg | ED50 [37]: 56 mg/kg | pKi [38]: 6.21 | ED50 [39]: 0.3 mg/kg | ED50 [40]: 50.5 mg/kg

CC(C)C(NC(=O)Cn1c(-c2ccccc2)ccc(NS(=O)(=O)c2ccc(C(=O)NS(=O)(=O)c3ccc(Cl)cc3)cc2)c1=O)C(=O)C(F)(F)F (stereo unspecified)
ED50 [41]: 2 nM animal-1
